Measurements reported in US20260125400A1, “TYK2 DEGRADERS AND USES THEREOF” (Kymera Therapeutics, Inc., priority 2023, published 2026).

Biological target: T1, TYK2 (Homo sapiens, UniProt P29597)
T1 construct: Degradation of TYK2 in cells was quantitatively measured using Meso Scale Discovery (MSD) technology; endogenous in cells; host or cells: OCI-LY10
Experiment: TYK2 MSD degradation in OCI-LY10 cells
Type: cell-based
Settings: TYK2 degradation in OCI-LY10 cells, 4 to 24 hours incubation; for DC50: read-out: TYK2 MSD OCI-LY10 Rel-DC50
Outline: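 Cellular TYK2 levels were measured by Meso Scale Discovery sandwich detection in RIPA lysates of OCI-LY10 cells exposed 4 to 24 hours at 37° C to nine 1:3 compound doses starting at 1 to 10 μM final; dose-response fitted by four-parameter regression.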

T1 sequence (P29597 whole entry): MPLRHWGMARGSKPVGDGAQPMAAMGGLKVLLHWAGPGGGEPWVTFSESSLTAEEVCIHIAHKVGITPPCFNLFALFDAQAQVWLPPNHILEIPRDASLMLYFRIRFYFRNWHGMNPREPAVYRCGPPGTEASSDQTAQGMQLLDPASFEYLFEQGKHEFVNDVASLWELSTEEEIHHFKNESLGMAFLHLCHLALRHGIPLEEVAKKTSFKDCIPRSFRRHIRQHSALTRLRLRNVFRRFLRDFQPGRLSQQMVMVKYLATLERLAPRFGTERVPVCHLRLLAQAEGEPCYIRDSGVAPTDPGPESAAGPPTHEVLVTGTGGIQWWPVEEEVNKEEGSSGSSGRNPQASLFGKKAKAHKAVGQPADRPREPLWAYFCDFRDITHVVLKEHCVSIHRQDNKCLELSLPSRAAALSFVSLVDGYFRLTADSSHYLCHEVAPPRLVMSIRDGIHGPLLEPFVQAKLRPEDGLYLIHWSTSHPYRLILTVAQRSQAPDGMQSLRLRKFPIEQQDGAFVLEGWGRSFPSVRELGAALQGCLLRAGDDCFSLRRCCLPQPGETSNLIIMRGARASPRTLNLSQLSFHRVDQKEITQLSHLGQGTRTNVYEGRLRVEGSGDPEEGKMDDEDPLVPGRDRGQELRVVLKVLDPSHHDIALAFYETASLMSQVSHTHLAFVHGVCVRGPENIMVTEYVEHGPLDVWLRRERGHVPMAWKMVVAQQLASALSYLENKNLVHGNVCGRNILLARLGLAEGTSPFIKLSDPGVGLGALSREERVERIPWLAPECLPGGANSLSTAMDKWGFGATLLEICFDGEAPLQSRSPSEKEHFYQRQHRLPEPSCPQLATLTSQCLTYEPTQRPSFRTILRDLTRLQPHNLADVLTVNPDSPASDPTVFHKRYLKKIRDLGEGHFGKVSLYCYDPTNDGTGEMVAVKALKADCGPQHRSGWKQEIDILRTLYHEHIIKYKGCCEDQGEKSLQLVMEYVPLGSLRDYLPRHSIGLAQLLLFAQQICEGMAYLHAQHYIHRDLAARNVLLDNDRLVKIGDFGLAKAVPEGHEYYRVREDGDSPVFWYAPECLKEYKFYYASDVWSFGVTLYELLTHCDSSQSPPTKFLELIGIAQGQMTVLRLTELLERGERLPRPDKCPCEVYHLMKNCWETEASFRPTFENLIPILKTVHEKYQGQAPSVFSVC

| SMILES | Dmax | DC50 | TYK2 MSD OCI-LY10 Dmax % |
| --- | --- | --- | --- |
| CNC(=O)c1cnc(Nc2ccc(C(=O)NCCOCCOCCN(C(=O)[C@H]3CCCN(c4cncc5ccccc45)C3)c3ccc(=O)n(CC(=O)O)c3)cn2)cc1Nc1cccc(-c2ncccn2)c1OC [I-915, (S)-2-(5-(1-(isoquinolin-4-yl)-N-(2-(2-(2-(6-((4-((2-methoxy-3-(pyrimidin-2-yl)phenyl)amino)-5-(methylcarbamoyl)pyridin-2-yl)amino)nicotinamido)ethoxy)ethoxy)ethyl)piperidine-3-carboxamido)-2-oxopyridin-1(2H)-yl)acetic acid] | 50 to 75% | 10 to 100 nM | – |
| CNC(=O)c1cnc(Nc2ccc(C(=O)NCCOCCOCCOCCN(C(=O)C3CCCN(c4cncc5ccccc45)C3)c3ccc(=O)n(CC(=O)O)c3)cn2)cc1Nc1cccc(-c2ncccn2)c1OC (stereo not shown) [I-918] | – | > 100 nM | D (D (<50%)) |
| CNC(=O)c1cnc(Nc2ccc(C(=O)NCCOCCOCCOCCOCCN(C(=O)C3CCCN(c4cncc5ccccc45)C3)c3ccc(=O)n(CC(=O)O)c3)cn2)cc1Nc1cccc(-c2ncccn2)c1OC (stereo not shown) [I-920] | – | > 100 nM | D (D (<50%)) |
| CNc1cc(N2CCc3c(-c4ncc(CN5CC6(CCN(C(=O)c7cc(N8CCC(=O)NC8=O)c(Cl)c(C)n7)CC6(F)F)C5)cc4F)cccc32)nn2c(C(=O)N[C@@H]3C[C@@H]3F)cnc12 [I-930] | – | < 1 nM | A (A (>90%)) |
| CNc1cc(N2CCc3c(-c4ncc(CN5CC6(CCN(C(=O)c7cc(Cl)c(C)c(N8CCC(=O)NC8=O)c7)CC6(F)F)C5)cc4F)cc(F)cc32)nn2c(C(=O)N[C@@H]3C[C@@H]3F)cnc12 [I-944] | – | < 1 nM | A (A (>90%)) |
| CNc1cc(N2CCc3c(-c4ncc(CN5CC6(CCN(C(=O)c7cc(C)c(Cl)c(N8CCC(=O)NC8=O)c7)CC6(F)F)C5)cc4F)cc(F)cc32)nn2c(C(=O)N[C@@H]3C[C@@H]3F)cnc12 [I-946] | – | < 1 nM | A (A (>90%)) |
| CNc1cc(N2CCc3c(-c4cc(C)c(CN5CC6(CCN(C(=O)c7cc(C)c(Cl)c(N8CCC(=O)NC8=O)c7)CC6(F)F)C5)cn4)cccc32)nn2c(C(=O)N[C@@H]3C[C@@H]3F)cnc12 [I-958] | – | < 1 nM | A (A (>90%)) |
| CNc1cc(N2CCc3c(-c4ccc(CN5CC6(CCN(C(=O)c7cc(C)c(Cl)c(N8CCC(=O)NC8=O)c7)CC6(F)F)C5)c(C)n4)cccc32)nn2c(C(=O)N[C@@H]3C[C@@H]3F)cnc12 [I-966] | – | < 10 nM | B (B (90 to >75%)) |
| CNc1cc(N2CCc3c(-c4ccc(CN5CC6(CCN(C(=O)c7ccc(C(F)(F)F)c(N8CCC(=O)NC8=O)c7)CC6(F)F)C5)cn4)cccc32)nn2c(C(=O)N[C@@H]3C[C@@H]3F)cnc12 [I-969] | – | < 10 nM | C (C (75 to 50%)) |
| CNc1cc(N2CCc3c(-c4ncc(CN5CC6(CCN(C(=O)c7cc(N8CCC(=O)NC8=O)c(C)cn7)CC6(F)F)C5)cc4F)cc(F)cc32)nn2c(C(=O)N[C@@H]3C[C@@H]3F)cnc12 [I-971] | – | < 1 nM | B (B (90 to >75%)) |
| CNc1cc(N2CCc3c(-c4ccc(CN5CC6(CCN(C(=O)c7ccc(C(F)F)c(N8CCC(=O)NC8=O)c7)CC6(F)F)C5)cn4)cccc32)nn2c(C(=O)N[C@@H]3C[C@@H]3F)cnc12 [I-977] | – | < 10 nM | C (C (75 to 50%)) |
| CNc1cc(N2CCc3c(-c4ccc(CN5CCC6(CCN(C(=O)c7ccc(C(F)(F)F)c(N8CCC(=O)NC8=O)c7)CC6)C(F)(F)C5)cn4)cccc32)nn2c(C(=O)N[C@@H]3C[C@@H]3F)cnc12 [I-978] | – | < 10 nM | D (D (<50%)) |
| CNc1cc(N2CCc3c(-c4ccc(CN5CCC6(CCN(C(=O)c7ccc(C(F)F)c(N8CCC(=O)NC8=O)c7)CC6)C(F)(F)C5)cn4)cccc32)nn2c(C(=O)N[C@@H]3C[C@@H]3F)cnc12 [I-980] | – | < 10 nM | C (C (75 to 50%)) |
| CNc1cc(N2CCc3c(-c4ncc(CN5CC6(CCN(C(=O)c7cc(C)c(Cl)c(N8CCC(=O)NC8=O)c7)CC6(F)F)C5)cc4F)cccc32)nn2c(C(=O)NC3CC3)cnc12 [I-982] | – | < 1 nM | B (B (90 to >75%)) |
| CNc1cc(N2CCc3c(-c4ncc(CN5CC6(CCN(C(=O)c7cc(C)c(C)c(N8CCC(=O)NC8=O)c7)CC6(F)F)C5)cc4F)cccc32)nn2c(C(=O)N[C@@H]3C[C@@H]3F)cnc12 [I-989] | – | < 1 nM | A (A (>90%)) |
| CNc1cc(N2CCc3c(-c4ncc(CN5CC6(CCN(C(=O)c7cc(C)c(Cl)c(N8CCC(=O)NC8=O)c7)CC6(F)F)C5)cc4F)cccc32)nn2c(C(=O)NC3CCCC3)cnc12 [I-990] | – | < 10 nM | B (B (90 to >75%)) |
| CNc1cc(N2CCc3c(-c4ncc(CN5CC6(CCN(C(=O)c7cc(C)c(Cl)c(N8CCC(=O)NC8=O)c7)CC6(F)F)C5)cc4F)cccc32)nn2c(C(=O)NC3CCC3)cnc12 [I-991] | – | < 10 nM | B (B (90 to >75%)) |
| CNc1cc(N2CCc3c(-c4ncc(CN5CC6(CCN(C(=O)c7cc(C)c(C)c(N8CCC(=O)NC8=O)c7)CC6(F)F)C5)cc4F)cccc32)nn2c(C(=O)NC3CCC3OC)cnc12 (stereo not shown) [I-993] | – | < 1 nM | A (A (>90%)) |
| CNc1cc(N2CCc3c(-c4ncc(CN5CC6(CCN(C(=O)c7cc(F)c(Cl)c(N8CCC(=O)NC8=O)c7)CC6(F)F)C5)cc4F)cccc32)nn2c(C(=O)N[C@@H]3C[C@@H]3F)cnc12 [I-994] | – | < 1 nM | A (A (>90%)) |
| CNc1cc(N2CCc3c(CN4CCC(N5CCC6(CCN(C(=O)c7cc(C)c(C)c(N8CCC(=O)NC8=O)c7)CC6)CC5)C(F)(F)C4)cccc32)nn2c(C(=O)N[C@@H]3CC[C@H]3OC)cnc12 (stereo partly shown) [I-995] | – | < 1 nM | A (A (>90%)) |
| CNc1cc(N2CCc3c(-c4ccc(CN5CCC6(CCN(C(=O)c7cc(C)c(Cl)c(N8CCC(=O)NC8=O)c7)CC6)C(F)(F)C5)cn4)cccc32)nn2c(C(=O)NC3CCC3(F)F)cnc12 (stereo not shown) [I-996] | – | < 10 nM | B (B (90 to >75%)) |
| CNc1cc(N2CCc3c(-c4ccc(OC5CC6(CCN(C(=O)c7cc(C)c(Cl)c(N8CCC(=O)NC8=O)c7)CC6)C5)cn4)cccc32)nn2c(C(=O)N[C@@H]3CC[C@H]3OC)cnc12 [I-997] | – | < 1 nM | A (A (>90%)) |
| CNc1cc(N2CCc3c(-c4ccc(CN5CCC6(CCN(C(=O)c7cc(C)c(Cl)c(N8CCC(=O)NC8=O)c7)CC6)C(F)(F)C5)cn4)cccc32)nn2c(C(=O)NC3CCCC3(F)F)cnc12 (stereo not shown) [I-998] | – | 10 to 100 nM | C (C (75 to 50%)) |
| CNc1cc(N2CCc3c(CN4CCC(N5CCC6(CCN(C(=O)c7cc(Cl)c(C)c(N8CCC(=O)NC8=O)c7)CC6)CC5)C(F)(F)C4)cccc32)nn2c(C(=O)NC3CCC3OC)cnc12 (stereo not shown) [I-1000] | – | < 1 nM | A (A (>90%)) |
| CNc1cc(N2CCc3c(-c4ncc(CN5CC6(CCN(C(=O)c7ccc(C)c(N8CCC(=O)NC8=O)c7)CC6(F)F)C5)cc4F)cccc32)nn2c(C(=O)N[C@@H]3CC[C@H]3OC)cnc12 [I-1004] | – | < 1 nM | A (A (>90%)) |
| CNc1cc(N2CCc3c(-c4ncc(CN5CC6(CCN(C(=O)c7cc(N8CCC(=O)NC8=O)c(Cl)cc7F)CC6(F)F)C5)cc4F)cccc32)nn2c(C(=O)NC3CCC3OC)cnc12 (stereo not shown) [I-1005] | – | < 1 nM | A (A (>90%)) |
